From patent publication US11566057B2, “Long-acting co-agonists of the glucagon and GLP-1 receptors” (Merck Sharp & Dohme Corp., priority 2017, dated 2023)
pEC50: −log10 of the molar value. Read-outs that look alike come from different tables or passages of the source. Numbered stars: 1 amine (or outer) side, 2 acyl side, 3 side chain; on linkers, the order of the positions; unused ones are H or OH. Square brackets hold non-standard residues; d marks the D form. Side chains are listed from the residue outwards. Peptide text beside a SMILES is read from it. * marks the point of attachment. C20 diacid = O=C(O)CCCCCCCCCCCCCCCCCCC(=O)*; Phe(4-CH2NH2) = NCc1ccc(C[C@H](N)C(=O)O)cc1; C18 diacid = O=C(O)CCCCCCCCCCCCCCCCC(=O)*; αMeW = C[C@](N)(Cc1c[nH]c2ccccc12)C(=O)O; C16 diacid = O=C(O)CCCCCCCCCCCCCCC(=O)*; γGlu = O=C(O)[C@H](CCC(=O)[*:2])N[*:1]; Met(O2) = CS(=O)(=O)CC[C@H](N)C(=O)O; αMeD = C[C@](N)(CC(=O)O)C(=O)O; AEEA = NCCOCCOCC(=O)O; Aib = CC(C)(N)C(=O)O

Legend:
[1] = target: T1, human GLP1R (Homo sapiens, UniProt P43220); assay: cAMP activity assay at the GLP-1 receptor (GLP1R); type: cell-based
T1 construct: expressed in transfected cells; growth medium holds Blasticidin and Hygromycin
Outline: (§1)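 Peptides serially diluted from DMSO (10 points) and added to frozen-stock cells bearing human GLP1R (10,000 cells/well) or GCGR (30,000 cells/well), 1 h at RT, dark. EC50 by four-parameter logistic fit of HitHunter cAMPXS luminescence, read following overnight RT incubation.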

[2] = target: T2, human GCGR (Homo sapiens, UniProt P47871); assay: cAMP activity assay at the Glucagon receptor (GCGR); type: cell-based; details: for hGCGR/hGLP1R (hTone): ratio of GCGR EC50 to GLP1R EC50
T2 construct: expressed in transfected cells; growth medium holds Blasticidin and Hygromycin
Outline: as §1

[3] = summary statement: EC50 at each of the glucagon and GLP-1 receptors, read-out: EC50 at the GLP-1 receptor
[4] = summary statement: EC50 at each of the glucagon and GLP-1 receptors, read-out: EC50 at the glucagon receptor

T2 sequence (P47871 26-477): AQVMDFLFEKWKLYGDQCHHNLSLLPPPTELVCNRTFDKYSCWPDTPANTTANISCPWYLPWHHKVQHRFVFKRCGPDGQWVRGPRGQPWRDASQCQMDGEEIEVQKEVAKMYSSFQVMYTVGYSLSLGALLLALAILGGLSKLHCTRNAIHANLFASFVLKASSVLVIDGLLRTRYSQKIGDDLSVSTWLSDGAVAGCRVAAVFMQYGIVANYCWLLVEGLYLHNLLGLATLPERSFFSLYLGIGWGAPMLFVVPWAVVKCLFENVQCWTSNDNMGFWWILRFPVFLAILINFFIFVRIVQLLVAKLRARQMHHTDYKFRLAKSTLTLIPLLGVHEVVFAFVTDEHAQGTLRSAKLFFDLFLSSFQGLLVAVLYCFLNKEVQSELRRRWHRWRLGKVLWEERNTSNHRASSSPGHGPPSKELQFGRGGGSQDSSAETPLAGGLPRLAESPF
T1 sequence (P43220 24-463): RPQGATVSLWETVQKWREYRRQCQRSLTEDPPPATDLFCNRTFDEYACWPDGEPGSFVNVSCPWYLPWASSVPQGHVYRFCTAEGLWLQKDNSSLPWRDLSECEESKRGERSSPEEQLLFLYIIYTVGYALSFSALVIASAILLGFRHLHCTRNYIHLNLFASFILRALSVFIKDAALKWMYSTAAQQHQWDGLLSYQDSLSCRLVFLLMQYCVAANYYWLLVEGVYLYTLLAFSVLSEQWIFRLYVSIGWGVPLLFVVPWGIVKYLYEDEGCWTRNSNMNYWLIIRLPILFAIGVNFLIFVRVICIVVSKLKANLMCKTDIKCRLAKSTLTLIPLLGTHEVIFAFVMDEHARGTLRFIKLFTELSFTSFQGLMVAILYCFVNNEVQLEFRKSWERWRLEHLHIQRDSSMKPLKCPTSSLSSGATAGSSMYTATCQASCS

| Structure (SMILES) | pEC50 [1, 3] | hGCGR/hGLP1R (hTone) [2] | pEC50 [2, 4] | pEC50 ([2]; cells expressing human GCGR, cAMP production, buffer with or without 20% human serum (not stated which), read-out: GCGR EC50 human) | pEC50 ([1]; cells expressing human GLP1R, cAMP production, buffer with or without 20% human serum (not stated which), read-out: GLP1R EC50 human) |
| --- | --- | --- | --- | --- | --- |
| CC(C)C[C@H](NC(=O)[C@H](Cc1ccc(O)cc1)NC(=O)[C@H](CCCCN)NC(=O)[C@H](CO)NC(=O)[C@H](Cc1ccc(CNC(=O)COCCOCCNC(=O)COCCOCCNC(=O)CC[C@H](NC(=O)CCCCCCCCCCCCCCCCC(=O)O)C(=O)O)cc1)NC(=O)[C@H](CC(=O)O)NC(=O)[C@H](CO)NC(=O)[C@@H](NC(=O)[C@H](Cc1ccccc1)NC(=O)[C@@H](NC(=O)CNC(=O)[C@H](CCC(N)=O)NC(=O)C(C)(C)NC(=O)[C@@H](N)Cc1c[nH]cn1)[C@@H](C)O)[C@@H](C)O)C(=O)N[C@@H](CC(=O)O)C(=O)N[C@@H](C)C(=O)N[C@@H](CCCNC(=N)N)C(=O)N[C@@H](C)C(=O)N[C@@H](C)C(=O)N[C@@H](CCC(N)=O)C(=O)N[C@@H](CC(=O)O)C(=O)N[C@@H](Cc1ccccc1)C(=O)N[C@H](C(=O)N[C@@H](CCC(N)=O)C(=O)N[C@@](C)(Cc1c[nH]c2ccccc12)C(=O)N[C@@H](CC(C)C)C(=O)N[C@@H](CCS(C)(=O)=O)C(=O)N[C@@H](CC(=O)O)C(=O)N[C@H](C(N)=O)[C@@H](C)O)C(C)C [TP625] (H-H[Aib]QGTFTSD[Phe(4-CH2NH2)]([AEEA-AEEA-γGlu-C18 diacid])SKYLDARAAQDFVQ[αMeW]L[Met(O2)]DT-NH2; N-terminus assumed) | > 8.30 | 3.4 | > 8.30 | – | – |
| CC(C)C[C@H](NC(=O)[C@H](Cc1ccc(O)cc1)NC(=O)[C@H](CCCCN)NC(=O)[C@H](CO)NC(=O)[C@H](Cc1ccc(O)cc1)NC(=O)[C@H](CC(=O)O)NC(=O)[C@H](CO)NC(=O)[C@@H](NC(=O)[C@H](Cc1ccccc1)NC(=O)[C@@H](NC(=O)CNC(=O)[C@H](CCC(N)=O)NC(=O)C(C)(C)NC(=O)[C@@H](N)Cc1c[nH]cn1)[C@@H](C)O)[C@@H](C)O)C(=O)N[C@@H](CC(=O)O)C(=O)N[C@@H](C)C(=O)N[C@@H](CCCNC(=N)N)C(=O)N[C@@H](C)C(=O)N[C@@H](C)C(=O)N[C@@H](CCCCNC(=O)COCCOCCNC(=O)CC[C@H](NC(=O)CCCCCCCCCCCCCCCCC(=O)O)C(=O)O)C(=O)N[C@@H](CC(=O)O)C(=O)N[C@@H](Cc1ccccc1)C(=O)N[C@H](C(=O)N[C@@H](CCC(N)=O)C(=O)N[C@@H](Cc1c[nH]c2ccccc12)C(=O)N[C@@H](CC(C)C)C(=O)N[C@@H](CCS(C)(=O)=O)C(=O)N[C@@H](CC(=O)O)C(=O)N[C@H](C(N)=O)[C@@H](C)O)C(C)C [TP626] (H-H[Aib]QGTFTSDYSKYLDARAAK([AEEA-γGlu-C18 diacid])DFVQWL[Met(O2)]DT-NH2; N-terminus assumed) | > 8.30 | 0.6 | > 8.30 | – | – |
| CC(C)C[C@H](NC(=O)[C@H](Cc1ccc(O)cc1)NC(=O)[C@H](CCCCN)NC(=O)[C@H](CO)NC(=O)[C@H](Cc1ccc(O)cc1)NC(=O)[C@H](CC(=O)O)NC(=O)[C@H](CO)NC(=O)[C@@H](NC(=O)[C@H](Cc1ccccc1)NC(=O)[C@@H](NC(=O)CNC(=O)[C@H](CCC(N)=O)NC(=O)C(C)(C)NC(=O)[C@@H](N)Cc1c[nH]cn1)[C@@H](C)O)[C@@H](C)O)C(=O)N[C@@H](CC(=O)O)C(=O)N[C@@H](C)C(=O)N[C@@H](CCCNC(=N)N)C(=O)N[C@@H](C)C(=O)N[C@@H](C)C(=O)N[C@@H](CCCCNC(=O)COCCOCCNC(=O)CC[C@H](NC(=O)CCCCCCCCCCCCCCC(=O)O)C(=O)O)C(=O)N[C@@H](CC(=O)O)C(=O)N[C@@H](Cc1ccccc1)C(=O)N[C@H](C(=O)N[C@@H](CCC(N)=O)C(=O)N[C@@H](Cc1c[nH]c2ccccc12)C(=O)N[C@@H](CC(C)C)C(=O)N[C@@H](CCS(C)(=O)=O)C(=O)N[C@@](C)(CC(=O)O)C(=O)N[C@H](C(N)=O)[C@@H](C)O)C(C)C [TP627] (H-H[Aib]QGTFTSDYSKYLDARAAK([AEEA-γGlu-C16 diacid])DFVQWL[Met(O2)][αMeD]T-NH2; N-terminus assumed) | > 8.30 | 0.6 | > 8.30 | 9.85 | – |
| CC(C)C[C@H](NC(=O)[C@H](Cc1ccc(O)cc1)NC(=O)[C@H](CCCCN)NC(=O)[C@H](CO)NC(=O)[C@H](Cc1ccc(O)cc1)NC(=O)[C@H](CC(=O)O)NC(=O)[C@H](CO)NC(=O)[C@@H](NC(=O)[C@H](Cc1ccccc1)NC(=O)[C@@H](NC(=O)CNC(=O)[C@H](CCC(N)=O)NC(=O)C(C)(C)NC(=O)[C@@H](N)Cc1c[nH]cn1)[C@@H](C)O)[C@@H](C)O)C(=O)N[C@@H](CC(=O)O)C(=O)N[C@@H](C)C(=O)N[C@@H](CCCNC(=N)N)C(=O)N[C@@H](C)C(=O)N[C@@H](C)C(=O)N[C@@H](CCCCNC(=O)COCCOCCNC(=O)CC[C@H](NC(=O)CCCCCCCCCCCCCCCCCCC(=O)O)C(=O)O)C(=O)N[C@@H](CC(=O)O)C(=O)N[C@@H](Cc1ccccc1)C(=O)N[C@H](C(=O)N[C@@H](CCC(N)=O)C(=O)N[C@@H](Cc1c[nH]c2ccccc12)C(=O)N[C@@H](CC(C)C)C(=O)N[C@@H](CCS(C)(=O)=O)C(=O)N[C@@](C)(CC(=O)O)C(=O)N[C@H](C(N)=O)[C@@H](C)O)C(C)C [TP629] (H-H[Aib]QGTFTSDYSKYLDARAAK([AEEA-γGlu-C20 diacid])DFVQWL[Met(O2)][αMeD]T-NH2; N-terminus assumed) | > 8.30 | 1.4 | > 8.30 | – | – |
| CC(C)C[C@H](NC(=O)[C@H](Cc1ccc(O)cc1)NC(=O)[C@H](CCCCN)NC(=O)[C@H](CO)NC(=O)[C@H](Cc1ccc(O)cc1)NC(=O)[C@H](CC(=O)O)NC(=O)[C@H](CO)NC(=O)[C@@H](NC(=O)[C@H](Cc1ccccc1)NC(=O)[C@@H](NC(=O)CNC(=O)[C@H](CCC(N)=O)NC(=O)C(C)(C)NC(=O)[C@@H](N)Cc1c[nH]cn1)[C@@H](C)O)[C@@H](C)O)C(=O)N[C@@H](CC(=O)O)C(=O)N[C@@H](C)C(=O)N[C@@H](CCCNC(=N)N)C(=O)N[C@@H](C)C(=O)N[C@@H](C)C(=O)N[C@@H](CCCCNC(=O)COCCOCCNC(=O)COCCOCCNC(=O)CC[C@H](NC(=O)CCCCCCCCCCCCCCCCC(=O)O)C(=O)O)C(=O)N[C@@H](CC(=O)O)C(=O)N[C@@H](Cc1ccccc1)C(=O)N[C@H](C(=O)N[C@@H](CCC(N)=O)C(=O)N[C@@](C)(Cc1c[nH]c2ccccc12)C(=O)N[C@@H](CC(C)C)C(=O)N[C@@H](CCS(C)(=O)=O)C(=O)N[C@@H](CC(=O)O)C(=O)N[C@H](C(N)=O)[C@@H](C)O)C(C)C [TP631] (H-H[Aib]QGTFTSDYSKYLDARAAK([AEEA-AEEA-γGlu-C18 diacid])DFVQ[αMeW]L[Met(O2)]DT-NH2; N-terminus assumed) | > 8.30 | 1.3 | > 8.30 | – | – |
| CC(C)C[C@H](NC(=O)[C@H](Cc1ccc(O)cc1)NC(=O)[C@H](CCCCN)NC(=O)[C@H](CO)NC(=O)[C@H](Cc1ccc(O)cc1)NC(=O)[C@H](CC(=O)O)NC(=O)[C@H](CO)NC(=O)[C@@H](NC(=O)[C@H](Cc1ccccc1)NC(=O)[C@@H](NC(=O)CNC(=O)[C@H](CCC(N)=O)NC(=O)C(C)(C)NC(=O)[C@@H](N)Cc1c[nH]cn1)[C@@H](C)O)[C@@H](C)O)C(=O)N[C@@H](CC(=O)O)C(=O)N[C@@H](C)C(=O)N[C@@H](CCCNC(=N)N)C(=O)N[C@@H](C)C(=O)N[C@@H](C)C(=O)N[C@@H](CCC(N)=O)C(=O)N[C@@H](Cc1ccc(CNC(=O)COCCOCCNC(=O)CC[C@H](NC(=O)CCCCCCCCCCCCCCCCC(=O)O)C(=O)O)cc1)C(=O)N[C@@H](Cc1ccccc1)C(=O)N[C@H](C(=O)N[C@@H](CCC(N)=O)C(=O)N[C@@H](Cc1c[nH]c2ccccc12)C(=O)N[C@@H](CC(C)C)C(=O)N[C@@H](CC(C)C)C(=O)N[C@@H](CC(=O)O)C(=O)N[C@H](C(N)=O)[C@@H](C)O)C(C)C [TP633] (H-H[Aib]QGTFTSDYSKYLDARAAQ[Phe(4-CH2NH2)]([AEEA-γGlu-C18 diacid])FVQWLLDT-NH2; N-terminus assumed) | > 8.30 | 0.7 | > 8.30 | – | 9.72 |
| CC(C)C[C@H](NC(=O)[C@H](Cc1ccc(O)cc1)NC(=O)[C@H](CCCCN)NC(=O)[C@H](CO)NC(=O)[C@H](Cc1ccc(O)cc1)NC(=O)[C@H](CC(=O)O)NC(=O)[C@H](CO)NC(=O)[C@@H](NC(=O)[C@H](Cc1ccccc1)NC(=O)[C@@H](NC(=O)CNC(=O)[C@H](CCC(N)=O)NC(=O)C(C)(C)NC(=O)[C@@H](N)Cc1c[nH]cn1)[C@@H](C)O)[C@@H](C)O)C(=O)N[C@@H](CC(=O)O)C(=O)N[C@@H](C)C(=O)N[C@@H](CCCNC(=N)N)C(=O)N[C@@H](C)C(=O)N[C@@H](C)C(=O)N[C@@H](CCC(N)=O)C(=O)N[C@@H](Cc1ccc(CNC(=O)COCCOCCNC(=O)COCCOCCNC(=O)CC[C@H](NC(=O)CCCCCCCCCCCCCCCCC(=O)O)C(=O)O)cc1)C(=O)N[C@@H](Cc1ccccc1)C(=O)N[C@H](C(=O)N[C@@H](CCC(N)=O)C(=O)N[C@@H](Cc1c[nH]c2ccccc12)C(=O)N[C@@H](CC(C)C)C(=O)N[C@@H](CCS(C)(=O)=O)C(=O)N[C@@](C)(CC(=O)O)C(=O)N[C@H](C(N)=O)[C@@H](C)O)C(C)C [TP634] (H-H[Aib]QGTFTSDYSKYLDARAAQ[Phe(4-CH2NH2)]([AEEA-AEEA-γGlu-C18 diacid])FVQWL[Met(O2)][αMeD]T-NH2) | > 8.30 | 1.6 | > 8.30 | – | – |
